According to patent US20240051976A1, “A Tracer Compound and a Preparation Method Thereof” (Turun Yliopisto, priority 2020, published 2024):

Assays:
B16/F10 melanoma cells = experiment: Nonspecific B16/F10 melanoma cell-uptake (free, membrane-bound, internalized fractions); type: cell-based, mouse; conditions: for radioactivity in the free fraction outside the cells: n=3
Protocol: Rat pancreatic tumor cell line AR42J that expresses SSTR was obtained from American Type Culture Collection (Manassas, VA). C4-2 cells (ATCC® CRL-3314™) were cultured in DMEM medium (Gibco) supplemented with 18% F12 medium (Sigma), 10% FBS (Gibco) and 1% T-medium. Both cell lines were grown in at 37° C. in a humidified incubator containing 5% C02. Cells grown to 80%-90% confluence were used for either in vitro or in vivo experiments. Mouse skin melanoma B16/F10 cells were cultured in CO2 Independent Medium (Life Technologies Gibco, cat. #18045054) supplemented with GlutaMax (1× final concentration, 10% FBS and Pen-Strep at 37° C. in a humidified incubator. The B16/F10 cell viability was 97%. The C4-2 cells (ATCC® CRL-3314™) were cultured in DMEM medium (Gibco) supplemented with 18% F12 medium (Sigma), 10% FBS (Gibco) and 1% T-medium. Both cell lines were grown in at 37° C. in a humidified incubator containing 5% C02. Cells grown to 80%-90% confluence were used for either in vitro or in vivo experiments.
500 000 cells/well were seeded overnight on 6-well plates. The growth media was removed and the reaction media containing the radiotracer [^18F]4 was added. […] The membrane-bound fraction was collected by adding cold glycine buffer (1 mL) on the cells, incubating for 5 minutes on an ice bath, removing the supernatant, repeating the procedure, and washing the cells with cold 1×PBS, and collecting all the supernatants to the same microtube. For determining the internalized fraction, 1 M NaOH was added on the cells and left to incubate in ambient temperature for 10 minutes. The supernatant was removed and the cells were washed twice with cold 1×PBS, and the supernatants were collected into the same microtube. The supernatants collected separately in each phase, were measure with a gamma counter for determining the radioactivity-ratio (%) of each fraction. […] The radioactivity distribution between the aforementioned fractions is depicted in FIG. 9.

[1] = PET/CT, biodistribution and elimination in control SCID mice; type: in vivo, mouse; conditions: intravenous
Protocol: [^18F]AmBF3-Tz ([^18F]4) was formulated in 10% ethanol in 0.01 M PBS and administered intravenously to SCID mice. The PET/CT image was acquired with Inveon PET/CT and Molecubes PET and CT.
[^18F]AmBF3-Tz ([^18F]4) was formulated in 10% ethanol in 0.01 M PBS and administered intravenously to SCID mice. The standardized uptake values (SUVs) presenting the elimination profile (FIGS. 13a and 13b) were determined from the PET image by drawing regions-of-interest (ROI) around selected organs (heart, liver, kidney, lung, muscle, urinary bladder) and by measuring the ratio of radioactivity per unit volume of that ROI and normalized to the injected dose.

radioactivity in the free fraction outside the cells (B16/F10 melanoma cells; B16/F10 cells, 15 min): 99.3±0.09%
radioactivity in the free fraction outside the cells (B16/F10 melanoma cells; B16/F10 cells, 240 min): 99.3±0.08%
% of total radioactivity in the free fraction (B16/F10 melanoma cells; B16/F10 cells, at each time point (FIG. 9)): Over 99%
main elimination route [1]: through kidneys
in vivo stability (bone uptake) ([1]; PET/CT and biodistribution): excellent stability
SMILES: C[N+](C)(CCNC(=O)Cc1ccc(-c2nncnn2)cc1)C[B-](F)(F)F [[^18F]4, {[(2-{2-[4-(1,2,4,5-tetrazin-3-yl)phenyl]acetamido}ethyl)dimethylammonio]methyl}trifluoroborate]
nonspecific uptake in B16/F10 cells (B16/F10 melanoma cells; throughout the study): did not demonstrate nonspecific uptake
